Source: ChEMBL document CHEMBL1129417, “Glucose transport-enhancing and hypoglycemic activity of 2-methyl-2-phenoxy-3-phenylpropanoic acids” (1996)
Several values for one entry are separate records, joined by “and”; a condition that tells them apart may be missing. Equal values may be shown once.

Experiments:
Assay type in all cases: functional
[1] = organism: Rattus norvegicus; assay: Inhibition of gluconeogenesis in rat
[2] = system: Mus musculus; assay: In vivo hypoglycemic activity expressed as glucose lowering relative to positive control in 6-8 week old C57BL/6J ob/ob mouse at 1 mg/kg.
[3] = system: Mus musculus; assay: In vivo hypoglycemic activity expressed as glucose lowering relative to positive control in 6-8 week old C57BL/6J ob/ob mouse at 10 mg/kg
[4] = system: Mus musculus; assay: In vivo hypoglycemic activity expressed as glucose lowering relative to positive control in 6-8 week old C57BL/6J ob/ob mouse at 5 mg/kg.
[5] = system: 3T3-L1; assay: Acute effects in vitro by measuring 2-deoxyglucose (2DG) uptake in vehicle treated 3T3-L1 adipocytes at 30 uM dose.
[6] = system: 3T3-L1; assay: In vitro measurements of 2-Deoxyglucose (2DG) uptake in vehicle treated 3T3-L1 adipocytes at 60 uM dose.
[7] = system: 3T3-L1; assay: Acute effects in vitro by measuring 2-deoxyglucose (2DG) uptake in vehicle treated 3T3-L1 adipocytes at 10 uM dose.
[8] = system: 3T3-L1; assay: In vitro by measurements of 2-Deoxyglucose (2DG) uptake in vehicle treated 3T3-L1 adipocytes at 3 uM dose.
[9] = system: Mus musculus; assay: compound was tested in vivo for hypoglycemic activity expressed as Glucose lowering relative to positive control in 6-8 week old C57BL/6J ob/ob mouse at 50 mg/kg
[10] = system: 3T3-L1; assay: In vitro measurements 2-Deoxyglucose (2DG) uptake in vehicle treated 3T3-L1 adipocytes at 100 uM dose.
[11] = Rattus norvegicus, read-out: ED50

Compound: CCc1ccc(CC(C)(Oc2ccc(Cc3ccccc3)cc2)C(=O)[O-])cc1.[Na+] (stereo not given)
- ED50 [1, 11]: 1 mg/kg
- Hypoglycemic activity [2]: 44%
- Hypoglycemic activity [3]: 107%
- Hypoglycemic activity [4]: 104%

Compound: CC(Cc1ccc(Cl)cc1)(Oc1ccc(Cc2ccccc2)cc1)C(=O)[O-].[Na+] (stereo not given)
- ED50 [1, 11]: 1 mg/kg
- Hypoglycemic activity [2]: 44%
- Hypoglycemic activity [3]: 96%
- Basal uptake [5]: 109%
- Basal uptake [6]: 214%
- Hypoglycemic activity [4]: 100%

Compound: Cc1cc(C)c(CC(C)(Oc2ccc(C(C)C)cc2)C(=O)[O-])c(C)c1.[Na+] (stereo not given)
- ED50 [1, 11]: < 10 mg/kg
- Hypoglycemic activity [3]: 77%
- Basal uptake [5]: 106%
- Basal uptake [6]: 173%
- Basal uptake [7]: 148%

Compound: CC(C)c1ccc(OC(C)(COP(=O)([O-])[O-])Cc2ccc(Cl)cc2)cc1.[Ca+2] (stereo not given)
- ED50 [1, 11]: > 10 mg/kg
- Hypoglycemic activity [3]: 50%

Compound: CC(C)c1ccc(OC(C)(Cc2ccc3ccccc3c2)C(=O)O)cc1 (stereo not given)
- ED50 [1, 11]: > 10 mg/kg
- Hypoglycemic activity [3]: 46%

Compound: COc1ccc(S(=O)(=O)NC(=O)C(C)(Oc2ccc(C(C)C)cc2)C(C)c2ccc(Cl)cc2)cc1 (stereo not given)
- ED50 [1, 11]: > 10 mg/kg
- Hypoglycemic activity [3]: 16%
- Basal uptake [5]: 162%
- Basal uptake [8]: 130%
- Basal uptake [7]: 113%

Compound: CCc1ccc(CC(C)(Oc2ccc(C(C)C)cc2)C(=O)NS(=O)(=O)C(F)(F)F)cc1 (stereo not given)
- ED50 [1, 11]: > 10 mg/kg
- Hypoglycemic activity [3]: 27%

Compound: CC(C)c1ccc(OC(C)(Cc2ccc3c(c2)CCCC3)C(=O)[O-])cc1.[Na+] (stereo not given)
- ED50 [1, 11]: < 5 mg/kg
- Hypoglycemic activity [3]: 99%
- Hypoglycemic activity [4]: 75%

Compound: CC(C)c1ccc(OC(C)(Cc2ccc(C(C)(C)C)cc2)C(=O)O)cc1 (stereo not given)
- ED50 [1, 11]: 5 mg/kg
- Hypoglycemic activity [2]: 41%
- Hypoglycemic activity [3]: 102%
- Basal uptake [5]: 213% and 103%
- Basal uptake [7]: 104%
- Hypoglycemic activity [4]: 47%

Compound: CC(C)C1CCC(OC(C)(Cc2ccc(Cl)cc2)C(=O)[O-])CC1.[Na+] (stereo not given)
- ED50 [1, 11]: > 10 mg/kg
- Hypoglycemic activity [3]: <0%

Compound: Cc1ccc(S(=O)(=O)C(Cc2ccc(Cl)cc2)C(=O)O)cc1 (stereo not given)
- ED50 [1, 11]: > 50 mg/kg
- Basal uptake [6]: 89%
- Hypoglycemic activity [9]: <0%

Compound: CC(C)c1ccc(OC(C)(Cc2ccc(Cl)cc2)c2nnn[nH]2)cc1 (stereo not given)
- ED50 [1, 11]: 10 mg/kg
- Hypoglycemic activity [3]: <0%
- Basal uptake [5]: 159% and 105%
- Basal uptake [7]: 105%

Compound: CC(Cc1ccc(Cl)cc1)(Oc1ccc(Oc2ccccc2)cc1)C(=O)O (stereo not given)
- ED50 [1, 11]: < 1 mg/kg
- Hypoglycemic activity [2]: 60%
- Hypoglycemic activity [3]: 108%
- Hypoglycemic activity [4]: 100%

Compound: CCc1cccc(CC(C)(Oc2ccc(C3CCSc4ccccc43)cc2)C(=O)[O-])c1.[Na+] (stereo not given)
- ED50 [1, 11]: > 10 mg/kg
- Hypoglycemic activity [3]: 35%
- Basal uptake [8]: 116% and 104%
- Basal uptake [7]: 113%

Compound: CC(C)c1ccc(OC(C)(Cc2ccc(Cl)c(Cl)c2)C(=O)O)cc1 (stereo not given)
- ED50 [1, 11]: 5 mg/kg
- Hypoglycemic activity [2]: 0%
- Hypoglycemic activity [3]: 111%
- Hypoglycemic activity [4]: 24%

Compound: COc1ccc(CC(C)(Oc2ccc(C(C)C)cc2)C(=O)O)cc1 (stereo not given)
- ED50 [1, 11]: > 10 mg/kg
- Hypoglycemic activity [3]: 41%

Compound: CC(C)c1ccc2c(c1)CC(Cc1ccc(Cl)cc1)(C(=O)O)O2 (stereo not given)
- ED50 [1, 11]: > 50 mg/kg
- Basal uptake [6]: 66%
- Hypoglycemic activity [9]: <0%

Compound: CCCc1ccc(CC(C)(Oc2ccc(C(C)C)cc2)C(=O)NS(=O)(=O)C(F)(F)F)cc1 (stereo not given)
- ED50 [1, 11]: > 10 mg/kg
- Hypoglycemic activity [3]: 35%

Compound: CC(C)c1ccc(OC(C)(Cc2ccc(Cl)cc2)C(=O)/N=C(\N)NO)cc1 (stereo not given)
- ED50 [1, 11]: 10 mg/kg
- Hypoglycemic activity [2]: <0%
- Hypoglycemic activity [3]: 49%
- Hypoglycemic activity [4]: 44%

Compound: CC(C)c1ccc(OC(C)(CO)Cc2ccc(Cl)cc2)cc1 (stereo not given)
- ED50 [1, 11]: 10 mg/kg
- Hypoglycemic activity [3]: <0%
- Basal uptake [5]: 118%
- Basal uptake [8]: 118%
- Basal uptake [7]: 121%

Compound: Cc1ccc(CC(C)(Oc2ccc(C(C)C)cc2)C(=O)[O-])cc1.[Na+] (stereo not given)
- ED50 [1, 11]: < 1 mg/kg
- Basal uptake [10]: 92%
- Hypoglycemic activity [2]: 58%
- Hypoglycemic activity [3]: 106%
- Hypoglycemic activity [4]: 100%

Compound: Cc1cccc(CC(C)(Oc2ccc(C(C)C)cc2)C(=O)[O-])c1.[Na+] (stereo not given)
- ED50 [1, 11]: < 1 mg/kg
- Hypoglycemic activity [2]: 63%
- Hypoglycemic activity [3]: 83%
- Basal uptake [5]: 84%
- Basal uptake [8]: 93%
- Basal uptake [7]: 98%
- Hypoglycemic activity [4]: 83%

Compound: COc1ccc(Cc2ccc(OC(C)(Cc3ccc(Cl)cc3)C(=O)[O-])cc2)cc1.[Na+] (stereo not given)
- ED50 [1, 11]: < 10 mg/kg
- Hypoglycemic activity [3]: 74%

Compound: CC(Cc1ccc(Cl)cc1)(Oc1ccc(C2CCSCC2)cc1)C(=O)[O-].[Na+] (stereo not given)
- ED50 [1, 11]: < 10 mg/kg
- Hypoglycemic activity [3]: 64%
- Basal uptake [6]: 108%

Compound: COc1ccccc1CC(Oc1ccc(C(C)C)cc1)C(=O)O (stereo not given)
- ED50 [1, 11]: > 10 mg/kg
- Hypoglycemic activity [3]: <0%
- Basal uptake [6]: 78%

Compound: CC(Cc1ccc(Cl)cc1)(Oc1ccc(Br)cc1)C(=O)O (stereo not given)
- ED50 [1, 11]: < 1 mg/kg
- Hypoglycemic activity [3]: 22%
- Basal uptake [5]: 134%
- Basal uptake [8]: 120%
- Basal uptake [7]: 109%

Compound: CC(C)c1ccc(OC(C)(Cc2ccc(Cl)cc2)C(=O)NS(C)(=O)=O)cc1 (stereo not given)
- ED50 [1, 11]: 5 mg/kg
- Hypoglycemic activity ([3]; 10 mg/kg): 96% and 100%
- Basal uptake [5]: 255%
- Basal uptake [6]: 200%
- Basal uptake [7]: 100%
- Hypoglycemic activity [4]: 0%

Compound: COc1ccc(Cl)cc1C(=O)NCCc1ccc(CC(C)(Oc2ccc(C(C)C)cc2)C(=O)O)cc1 (stereo not given)
- ED50 [1, 11]: > 10 mg/kg
- Hypoglycemic activity [3]: 24%

Compound: CC(C)c1ccc(OC(C(=O)O)C(C)c2ccc(Cl)cc2)cc1 (stereo not given)
- ED50 [1, 11]: > 10 mg/kg
- Hypoglycemic activity [3]: 17%
- Basal uptake [6]: 111%

Compound: Cc1ccccc1S(=O)(=O)NC(=O)C(C)(Cc1ccc(Cl)cc1)Oc1ccc(C(C)C)cc1 (stereo not given)
- ED50 [1, 11]: > 10 mg/kg
- Hypoglycemic activity [3]: <0%
- Basal uptake [5]: 232% and 126%
- Basal uptake [7]: 251%

Compound: CC(C)c1ccc(OC(C)(Cc2ccc(Cl)cc2)C(=N)NO)cc1 (stereo not given)
- ED50 [1, 11]: > 10 mg/kg
- Hypoglycemic activity [3]: 27%

Compound: CCc1ccc(CC(C)(Oc2ccc(Oc3ccccc3)cc2)C(=O)O)cc1 (stereo not given)
- ED50 [1, 11]: 1 mg/kg
- Hypoglycemic activity [2]: 48%
- Hypoglycemic activity [3]: 130%
- Hypoglycemic activity [4]: 113%

Compound: CC(C)c1ccc(OC(C)(Cc2ccc(Cl)cc2)C(=O)CO)cc1 (stereo not given)
- ED50 [1, 11]: > 10 mg/kg
- Hypoglycemic activity [3]: 32%

Compound: CC(Cc1ccc(Cl)cc1)(Oc1ccc(Cc2ccc(Cl)cc2)cc1)C(=O)[O-].[Na+] (stereo not given)
- ED50 [1, 11]: > 10 mg/kg
- Hypoglycemic activity [3]: <0%
- Basal uptake [5]: 112% and 90%
- Basal uptake [7]: 94%

Compound: CCCCc1ccc(CC(C)(Oc2ccc(C(C)C)cc2)C(=O)[O-])cc1.[Na+] (stereo not given)
- ED50 [1, 11]: 1 mg/kg
- Hypoglycemic activity [2]: 17%
- Hypoglycemic activity [3]: 130%
- Basal uptake [5]: 200%
- Basal uptake [8]: 82%
- Basal uptake [7]: 94%
- Hypoglycemic activity [4]: 92%

Compound: CCC(Cc1ccc(Cl)cc1)(Oc1ccc(C(C)C)cc1)C(=O)[O-].[Na+] (stereo not given)
- ED50 [1, 11]: > 5 mg/kg
- Basal uptake [10]: 156%
- Hypoglycemic activity [4]: 36%

Compound: CC(C)c1ccc2c(c1)C(c1ccc(Cl)cc1)C(C(=O)O)O2 (stereo not given)
- ED50 [1, 11]: > 50 mg/kg
- Basal uptake [6]: 89%
- Hypoglycemic activity [9]: 25%

Compound: COc1ccc(S(=O)(=O)NC(=O)C(C)(Cc2ccc(Cl)cc2)Oc2ccc(C(C)C)cc2)cc1 (stereo not given)
- ED50 [1, 11]: > 10 mg/kg
- Hypoglycemic activity [3]: 22%
- Basal uptake [5]: 154%
- Basal uptake [6]: 67%
- Basal uptake [7]: 101%

Compound: CCCCc1cccc(CC(C)(Oc2ccc(C(C)C)cc2)C(=O)[O-])c1.[Na+] (stereo not given)
- ED50 [1, 11]: 1 mg/kg
- Hypoglycemic activity [2]: <0%
- Hypoglycemic activity [3]: 91%
- Basal uptake [5]: 113%
- Basal uptake [7]: 129%
- Hypoglycemic activity [4]: 85%

Compound: CC(Cc1ccc(Cl)cc1)(Oc1ccccc1Cc1ccc(Cl)cc1)C(=O)[O-].[Na+] (stereo not given)
- ED50 [1, 11]: 10 mg/kg
- Hypoglycemic activity [3]: 52%
- Basal uptake [5]: 97% and 100%
- Basal uptake [7]: 88%

Compound: CCCc1ccc(CC(C)(Oc2ccc(Cc3ccccc3)cc2)C(=O)[O-])cc1.[Na+] (stereo not given)
- ED50 [1, 11]: 1 mg/kg
- Hypoglycemic activity [2]: 24%
- Hypoglycemic activity [3]: 96%
- Hypoglycemic activity [4]: 91%

Compound: COc1ccccc1CC(C)(Oc1ccc(C(C)C)cc1)C(=O)O (stereo not given)
- ED50 [1, 11]: > 10 mg/kg
- Hypoglycemic activity [3]: <0%
- Basal uptake [5]: 122%
- Basal uptake [6]: 120%
- Basal uptake [7]: 100%

Compound: CCc1ccccc1CC(C)(Oc1ccc(C(C)C)cc1)C(=O)[O-].[Na+] (stereo not given)
- ED50 [1, 11]: 5 mg/kg
- Hypoglycemic activity [2]: 32%
- Hypoglycemic activity [3]: 95%
- Hypoglycemic activity [4]: 53%

Compound: CC(C)c1ccc(OC(C(=O)[O-])C(C)c2ccc(Cl)cc2)cc1.[Na+] (stereo not given)
- ED50 [1, 11]: > 10 mg/kg
- Hypoglycemic activity [3]: 41%
- Basal uptake [6]: 98%

Compound: CC(C)c1ccc(OC(C)(C(=O)O)C(C)c2ccc(Cl)cc2)cc1 (stereo in doubt; 85)
- ED50 [1]: >10 mg/kg
- Hypoglycemic activity ([3]; 10 mg/kg): 46%
- Basal uptake [5]: 131%
- Basal uptake [6]: 209%
- Basal uptake [7]: 128%

Compound: CC(C)c1ccc(OC(C)(C(=O)O)C2CCc3cc(Cl)ccc32)cc1 (stereo in doubt; 100)
- ED50 [1]: 1 mg/kg
- Hypoglycemic activity [2]: 14%
- Hypoglycemic activity ([3]; 10 mg/kg): 105%
- Basal uptake [5]: 89%
- Basal uptake [8]: 85%
- Basal uptake [7]: 83%
- Hypoglycemic activity [4]: 78%

Compound: CC(C)c1ccc(OC(C)(C(=O)O)C2CCc3cc(Cl)ccc32)cc1 (stereo in doubt; 101)
- ED50 [1]: >10 mg/kg
- Hypoglycemic activity ([3]; 10 mg/kg): 35%
- Basal uptake [5]: 85%
- Basal uptake [8]: 71%
- Basal uptake [7]: 86%
